In brackets after ≈: the same amount, converted by molar mass.
Tests used:
[1] = test system: fungi; conditions: cited from earlier work
[2] = test system: YS 18 yeast cells; test: Growth curves of yeast in liquid YPD medium with soraphen A (OD600, viable cell titer); type: cell-based, Saccharomyces cerevisiae
Protocol: Saccharomyces cerevisiae strain YS 18 (MATeα; his 3-11, 3-15; leu 2-3, 2-112; ura 3-Δ5; can^R; cir^+) is chosen as the wild-type. YHV 18 (MATa; his 3-11, 3-15; leu 2-3, 2-112; ura 3-Δ5; canst; cir^+) is isolated after a mating type switch of YS 18 and is therefore isogenic.
100 ml YPD medium in a 500 ml flask is inoculated with about 10^7 YS 18 yeast cells/ml and incubated for growth at 180 rpm at 30° C. Before the addition of soraphen A at time point 0, the cells have already been incubated for 1 hour. The control is treated identically, but receives no soraphen A. Total cell numers are monitored by measuring the OD600. The number of viable cells called the […] is determined by plating on YPD plates. The number of soraphen A resistant cells is counted by plating on YPD-SOR plates containing the same soraphen A concentration as in the flask.

[3] = test system: bacteria; conditions: cited from earlier work
[4] = test system: strains YS 18 and YHV 18 (culture A); test: Plating of culture A on YPD-SOR-10; type: cell-based, Saccharomyces cerevisiae; conditions: 10 μg/ml soraphen A, 30° C., 3 days
Protocol: YPD-SOR-10 is YPD medium supplemented with 10 μg/ml soraphen A.
Each of the isogenic strains YS 18 and YHV 18 is grown in 5 ml of YPD to late exponential phase. The culture is diluted 10^4 fold to give culture A the viable cell number of which is determined. Twenty tubes each containing 5 ml of YPD are inoculated with 10 μl of culture A, which corresponds to about 10 cells, and are incubated at 28° C. until a density of 10^7 cells/ml is attained. 1 ml aliquots of each of the tubes are plated on YPD-SOR-10 and the plates are incubated at 30° C. for 3 days. To ensure isolation of independent mutants from each of the 20 YPD-SOR-10 plates only colonies with different shape or sizes are selected. Mutant colonies are restreaked twice on YPD before storing them as glycerol stock cultures at -70° C.
To exclude the presence of soraphen A resistant routants at the beginning of the cultivation of culture A, the remainder of culture A is plated on YPD-SOR-10 and incubated at 30° C. for 3 days.

[5] = test system: diploids from the backcrosses of soraphen A resistant yeast strains; test: Determination of the minimal inhibitory concentration (MIC) on YPD-SOR plates, diploids from backcrosses of soraphen A resistant strains; type: cell-based, Saccharomyces cerevisiae; conditions: diploids from backcrosses vs wild-type
Protocol: In a first step all of the mutants are backcrossed with the wild-type strain of the opposite mating type, the diploid strains are sporulated and the asci are subjected to tetrad analysis. From each cross at least six complete tetra are examined and all of them are found to segregate 2:2 for soraphen A resistance and soraphen A sensitivity. This indicates mutations at a single genetic locus.
In another step the MIC of the dipbids from the backcrosses is determined.
Yeast colonies are grown for 2 days at 30° C. on a YPD plate and replica pated on a set of YPD-SOR plates. The following soraphen A concentrations are used: 0 μg/ml, 0,35 μg/ml, 0,76 μg/ml, 1,5 μg/ml, 3,13 μg/ml 6,7 μg/ml, 15,45 μg/ml and 54,5 μg/ml. After growth for 24 hours at 30° C. the plates are inspected for growth.

[6] = test system: acetyl-CoA carboxylase; conditions: cited from earlier work

Question: With `COC1/C=C/C(C)C2OC(O)(C(C)C(=O)OC(c3ccccc3)CCCCC1OC)C(OC)C(O)C2C` (centres unmarked) [soraphen A] as the compound, how does the “activity as a fungicide” value [1] read?
Answer: strong activity as a fungicide

Question: And the MIC ([2]; Saccharomyces cerevisiae, YS 18 wild-type, YPD, 30° C., 180 rpm, read-out: minimal inhibitory concentration (MIC) as determined from the growth curves)?
Answer: 0.1 µg/mL (≈ 0.192 µM)

Question: And the “duration of complete inhibition of growth” value ([2]; YS 18, YPD, 30° C., thereafter growth recovers due to soraphen A resistant mutants)?
Answer: approximately 40 hours

Question: What about the “cell killing (viable cell counts)” value ([2]; YS 18, during the first 20 hours) of the same compound?
Answer: extensive cell killing occurs

Question: And the effect on bacteria [3]?
Answer: without effect on bacteria

Question: What about the growth of colonies [4] of the same compound?
Answer: No growth of colonies is observed

Question: And the “sensitivity of the diploids compared with the wild-type strain” value [5]?
Answer: None of the diploids is as sensitive to soraphen A as the wild-type strain

Question: And the “interference with acetyl-CoA carboxylase” value [6]?
Answer: shown to interfere with acetyl-CoA carboxylase
